Reference: the NIST ThermoML archive (doi:10.1016/j.fluid.2016.02.009)

Details: Liquid, Vibrating tube method

CCCCOCC [butyl ethyl ether]
mass density [kg/m3]
Details	283.15 K	288.15 K	293.15 K	298.15 K	303.15 K	308.15 K
100 kPa	759.63	754.84	750.02	745.17	740.3	735.39
5000 kPa	764.45	759.82	755.18	750.51	745.81	741.09
10000 kPa	768.96	764.48	759.98	755.44	750.9	746.35
15000 kPa	773.2	768.83	764.45	760.05	755.66	751.24
20000 kPa	777.2	772.96	768.69	764.43	760.15	755.87
25000 kPa	781.05	776.9	772.75	768.58	764.45	760.26
30000 kPa	784.72	780.66	776.62	772.55	768.49	764.45
35000 kPa	788.24	784.28	780.33	776.36	772.35	–
40000 kPa	791.65	787.77	783.87	780.01	776.1	–
45000 kPa	794.97	791.13	787.34	783.52	779.71	–
50000 kPa	798.13	794.37	790.66	786.91	783.18	–
55000 kPa	801.25	797.51	793.86	790.19	786.51	–
60000 kPa	804.23	800.57	796.96	793.36	789.75	–
65000 kPa	807.14	803.54	799.99	796.44	792.89	–
